Test results: US20250295634A1, “USE OF ANTIANDROGENS TO TREAT SEPSIS” (Rhode Island Hospital, priority 2024, published 2025)
Like-named read-outs stand apart in the source and are kept apart here.

Assays:
COVID-19 [1] = details: cited from earlier work
[2] = in vivo; cited from earlier work
COVID-19 [3] = details: at five days of therapy; cited from earlier work
TMPRSS2 [4] = details: in men; cited from earlier work
[5] = tested on: angiotensin converting enzyme 2 (ACE2); details: in men; cited from earlier work
COVID-19 [6] = details: men with diagnosis of AGA, outpatient setting; cited from earlier work
COVID-19 [7] = details: cited from earlier work; remark: listed apart in the source
TMPRSS2 [8] = details: cited from earlier work
COVID-19 [9] = details: inventors' reading of Welén et al.; the authors report no evidence of benefit; cited from earlier work
sepsis = details: fecal peritonitis model; cited from earlier work
COVID-19 [10] = test: Clinical trial of proxalutamide in hospitalized COVID-19 patients in Brazil (NCT04728802); format: in vivo, human; details: initiated in patients that don't require supplemental O2
COVID-19 [11] = details: cited from earlier work; remark: listed apart in the source
COVID-19 [12] = details: single case; case report later retracted; cited from earlier work
ACE2 = details: cited from earlier work
COVID-19 [13] = details: men, proxalutamide 200 mg for up to seven days; cited from earlier work
COVID-19 [14] = details: patients with severe lung involvement; cited from earlier work
androgen receptor = molecular target: T1, androgen receptor (Homo sapiens, UniProt P10275); details: clinical evidence; cited from earlier work
T1 sequence (P10275 1-920): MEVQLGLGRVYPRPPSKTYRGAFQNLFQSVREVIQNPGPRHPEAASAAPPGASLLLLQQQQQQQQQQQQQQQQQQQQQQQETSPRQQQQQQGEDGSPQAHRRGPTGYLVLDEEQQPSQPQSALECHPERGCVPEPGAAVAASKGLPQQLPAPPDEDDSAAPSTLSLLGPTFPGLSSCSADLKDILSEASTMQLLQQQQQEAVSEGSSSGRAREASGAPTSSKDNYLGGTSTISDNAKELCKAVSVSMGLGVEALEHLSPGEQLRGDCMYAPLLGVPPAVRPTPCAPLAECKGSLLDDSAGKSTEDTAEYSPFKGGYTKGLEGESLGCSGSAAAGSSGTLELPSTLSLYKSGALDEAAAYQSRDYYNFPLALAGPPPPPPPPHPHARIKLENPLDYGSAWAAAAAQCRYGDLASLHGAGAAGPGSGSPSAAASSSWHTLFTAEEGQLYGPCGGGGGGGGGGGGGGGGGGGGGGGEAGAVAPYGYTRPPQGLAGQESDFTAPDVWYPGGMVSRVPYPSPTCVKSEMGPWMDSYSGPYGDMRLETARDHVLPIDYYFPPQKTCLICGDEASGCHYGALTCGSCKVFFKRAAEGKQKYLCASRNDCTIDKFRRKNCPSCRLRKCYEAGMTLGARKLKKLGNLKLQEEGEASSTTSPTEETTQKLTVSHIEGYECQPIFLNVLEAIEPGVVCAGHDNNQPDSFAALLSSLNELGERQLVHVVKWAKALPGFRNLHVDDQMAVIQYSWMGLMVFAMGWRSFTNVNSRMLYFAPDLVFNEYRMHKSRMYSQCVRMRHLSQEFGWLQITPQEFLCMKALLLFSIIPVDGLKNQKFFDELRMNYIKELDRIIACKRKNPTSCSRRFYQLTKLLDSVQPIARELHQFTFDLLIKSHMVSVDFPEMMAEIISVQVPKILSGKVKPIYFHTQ

C[C@]12CCC(=O)C=C1C=C[C@@H]1[C@@H]2CC[C@@]2(C)[C@H]1CC[C@@]21CCC(=O)O1 [Canrenone]
fatalities (COVID-19 [1]; intensive care observational series of cases with hypertension or hypokalemia): associated with reduced fatalities

CC(C)(C)NC(=O)[C@H]1CC[C@H]2[C@@H]3CC[C@H]4NC(=O)C=C[C@]4(C)[C@H]3CC[C@]12C [Finasteride]
half-life [2]: six
peripheral capillary oxygen saturation (COVID-19 [3]): clinically and statistically significant improvement

C[C@]12CCC(=O)C=C1C=C[C@@H]1[C@@H]2CC[C@@]2(C)[C@H]1CC[C@@]2(O)CCC(=O)O [Potassium canrenoate]
all-cause mortality (COVID-19 [1]; severe COVID patients): proven to reduce all-cause mortality

C[C@]12C=CC(=O)N[C@@H]1CC[C@@H]1[C@@H]2CC[C@]2(C)[C@@H](C(=O)Nc3cc(C(F)(F)F)ccc3C(F)(F)F)CC[C@@H]12 [dutasteride]
half-life [2]: five
expression of TMPRSS2 (TMPRSS2 [4]): decrease the expression
expression of ACE2 [5]: decrease the expression
symptomatic COVID-19 disease (COVID-19 [6]): less symptomatic COVID-19 disease

CNC(=O)c1ccc(N2C(=S)N(c3ccc(C#N)c(C(F)(F)F)c3)C(=O)C2(C)C)cc1F [enzalutamide]
half-life [2]: 140 h
mortality, subgroup analysis (COVID-19 [7]; human, in vivo): significantly reduce mortality
TMPRSS2 regulation (TMPRSS2 [8]): significantly downregulated TMPRSS2
effect on hospitalized COVID-19 patients (COVID-19 [9]): positive effects

COCCCC/C(=N\OCCN)c1ccc(C(F)(F)F)cc1 [fluvoxamine]
anti-sepsis activity (sepsis): anti-sepsis activity

CC1(C)C(=O)N(c2ccc(C#N)c(C(F)(F)F)c2F)C(=S)N1c1ccc(CCCc2ncco2)nc1 [proxalutamide]
survival (COVID-19 [10]): no difference in survival
mortality, subgroup analysis (COVID-19 [7]; meta-analysis of RCTs): significantly reduce mortality
mortality in COVID-19 patients (COVID-19 [11]; data from Brazil, both arms using corticosteroids): dramatic impact of proxalutamide in reducing mortality
lung opacities compared to placebo (COVID-19 [11]; hospitalized COVID-19 patients): improves lung opacities
symptom resolution and laboratory improvement (COVID-19 [12]): striking symptom resolution and laboratory improvement within twenty-four hours
expression of ACE2 (ACE2): lowers the expression of ACE2
30-day hospitalization rate (COVID-19 [13]): about 2%
reduction of the risk of hospitalization compared to usual care (COVID-19 [13]): more than 90%
benefit vs standard-of-care which includes steroids (COVID-19 [14]): showed benefit
androgen receptor expression and activity (androgen receptor): lowers androgen receptor expression and activity

CC(=O)S[C@@H]1CC2=CC(=O)CC[C@]2(C)[C@H]2CC[C@@]3(C)[C@@H](CC[C@@]34CCC(=O)O4)[C@H]12 [spironolactone]
expression of TMPRSS2 (TMPRSS2 [4]): decrease the expression
expression of ACE2 [5]: decrease the expression
